Results reported in patent US20260335323A1, “CHIMERIC MOLECULE” (UCL Business Ltd, priority 2023, published 2026).

Columns and labels:
Format in all cases: cell-based, human
[1] = test system: p-Ub (S65); assay: Western blot, p-Ub (S65) in WT fibroblasts; conditions: 10 μM FCCP, 2 h
Method: (§1) FIG. 7. ULKTACs restore mitophagic activity in PINK-null PD patient fibroblasts (A) Western blot of patient derived fibroblasts, healthy control vs. PINK null, treated with […] NZ-65 or NZ-66 for 18 h or 10 μM FCCP for 2 h and probed for total Ub, pUb(S65), Mfn2 and b-Actin with quantification for the changes in the pUB (S65): Total Ub ratio shown in (B) and Mfn2 (C), respectively normalised to b-Actin. (D) Representative immunofluorescence of primary human fibroblasts isolated from wild type controls and PINK-null Parkinson's disease patients, treated with 10 µM FCCP, 1 μM NZ-65 or 1 μM NZ-66 and immunostained for TOM20 and ULK1; counterstained with Alexa 488 and Alexa 568 antibodies. Nuclei stained with Hoechst 33342. The quantification of these immunofluorescence experiments is shown in (E). Data shown are mean±SEM, n=3, *** p<0.001, two-way ANOVA with Tukey's multiple comparisons test.
(§2) Cells were homogenised in protein lysis buffer consisting of 0.1 M Tris pH 8.0, 0.1 M NaCl, 5% glycerol, IGEPAL® CA-630 (#18896. Sigma-Aldrich) and 5 mM EDTA, 0.1 M N-ethyl maleimide (ThermoFisher, #23030) and protease inhibitor (Cell Signalling Technologies, #5871). Protein concentrations were determined using the BCA assay to ensure equal loading. […] The membranes were immunoblotted with primary antibodies, overnight at 4° C. […]

[2] = test system: p-Ub (S65); assay: Western blot, p-Ub (S65) in PINK-null PD patient fibroblasts
Method: as §1, §2

[3] = test system: phospho-CHK1 (S345); assay: Western blot, phospho-CHK1 in RPE1-hTERT-cMYC-ER cells (replication stress); conditions: 72 h; NZ-175 at 100 nM with 4-OHT
Method: (§3) FIG. 15. NZ-175 rescues oncogenic c-MYC induced replication stress (100 nM, 72 h) (A) Western blot of RPE1-hTERT-cMYC-ER treated with 4-OHT and/or NZ-175 at 100 nM for 72 hours. 4-OHT treatment simulates oncogenic c-MYC-induced replication stress, observed by upregulation of phospho-CHK1 (S345), pRPA (S4/S8) and γH2AX. […] Quantification of blot is shown for pCHK1 […] (B), pRPA (S4/S8) (C), and YH2AX (D). n=3, mean±SEM, *p<0.05, ** p<0.01, *** p<0.001.
as §2
(§4) Membranes were then incubated with horseradish peroxidase (HRP)-conjugated secondary antibodies (Rabbit #7074 and Mouse #7076) purchased from Cell Signalling Technologies for 1 hour and the HRP signal was detected using EZ-ECL Enhanced Chemiluminescence Detection Kit for HRP (#20-500-500, Sartorius), and imaged with an Alliance Q9 Advanced (UVITec). […]
(§5) To see if NZ-175 could rescue this phenotype, RPE1-hTERT-cMYC-ER cells treated with 4-OHT and/or 100 nM NZ-175 for 72 h were analysed by Western blotting (FIG. 15A). […]

[4] = test system: pRPA (S4/S8); assay: Western blot, pRPA (S4/S8) in RPE1-hTERT-cMYC-ER cells (replication stress); conditions: 72 h; NZ-175 at 100 nM with 4-OHT
Method: as §3, §2, §4, §5

[5] = test system: γH2AX; assay: Western blot, γH2AX in RPE1-hTERT-cMYC-ER cells (replication stress); conditions: 72 h; NZ-175 at 100 nM with 4-OHT
Method: as §3, §2, §4, §5

[6] = test system: A549 cells; assay: Cell viability assay (CellTiter Glo), A549; conditions: A549, increasing concentrations
Method: (§6) A549 and H1299 cells were seeded in OptiPlate-384 well plates and treated with increasing concentrations of (+)-JQ1 or NZ-147 from 0 μM to 10 µM in Example 8 and with increasing concentrations of NZ-175 from 0 µM to 10 µM in Example 9. Cells were treated for 120 h before using the luciferase based CellTiter Glo assay (Promega) to measure cell viability.
(§7) Cell viability assay was performed in A549 and H1299 cells, which were treated with different concentrations of (+)-JQ1 or NZ-147 at 100 nM for 72 hours (FIG. 10B).
(§8) Cell viability assay was performed in A549 and H1299 cells, which were treated with different concentrations of NZ-147 at 100 nM for 72 hours (FIG. 16B).

[7] = test system: H1299 cells; assay: Cell viability assay (CellTiter Glo), H1299; conditions: H1299, increasing concentrations
Method: as §6, §7, §8

[8] = test system: c-MYC controlled genes; assay: RT-qPCR of c-MYC controlled genes in CAL51 cells; conditions: 100 nM, 72 hours
Method: FIG. 11. RT-qPCR quantification of expression of c-MYC controlled genes in CAL51 triple negative breast cancer cell line treated with DMSO, 100 nM (+)-JQ1 or 100 nM NZ-147 for 72 hours. […] MDM2 (A) and CCNE (B) are controlled by cMYC in oncogenic settings, PAICS (C) is a putative target of c-MYC, and eIF4E (D) is a known target of cMYC. n=3, *p<0.05, ** p<0.01, *** p<0.001.
RNA was extracted with the Qiagen RNeasy Mini kit following manufacturers protocol. RT-qPCR SYBR assay was carried out with Mesa Blue following manufacturers instructions, 80 ng RNA per well, experimental triplicates, BioRad CTX Connect qPCR machine. RNA levels were normalized to GAPDH. Experiments were done in biological triplicate. The primers used were as follows:
The levels of c-MYC controlled genes (determined using RT-qPCR) in CAL51 triple negative breast cancer cell line after treatment with DMSO, 100 nM (+)-JQ1 or 100 nM NZ-147 for 72 hours is shown in FIG. 11. In particular MDM2 (FIG. 11A) and CCNE (FIG. 11B) are controlled by cMYC in oncogenic settings, PAICS (FIG. 11C) is a putative target of c-MYC, and elF4E (FIG. 11D) is a known target of c-MYC.

[9] = test system: c-MYC; assay: c-MYC immunofluorescence in hTERT-cMYC-ER expressing RPE1 cells; conditions: 100 nM, 72 hours, 4-OHT and/or compound
Method: FIG. 9. (A) Schematic representation of hTERT-cMYC-ER expressing RPE1 cells. Treatment with 4-hydroxytamoxifen (4-OHT) translocates c-MYC-ER from the cytoplasm into the nucleus, simulating oncogenic c-MYC. (B) Immunofluorescence images of hTERT-cMYC-ER expressing RPE1 cells treated with DMSO, (+)-JQ1 or NZ-147 at 100 nM for 72 hours, each with or without 4-OHT.
RPE1-hTERT-c-MYC-ER cells were seeded in a 384 well PerkinElmer CellCarrier Ultra plate. In Example 8, cells were treated for 72 hours with DMSO, (+)-JQ1±4-OHT, or, NZ-147±4-OHT. In Example 9, cells were treated for 72 hours with 4-OHT, NZ-175, both, or neither. Thereafter, in both Examples 8 and 9, cells were fixed with 4% paraformaldehyde (PFA) in phosphate buffered saline (PBS) and blocked with 10% FBS and 0.1% Triton in PBS. Plates were incubated at 4° C. overnight, with 1:500 rabbit anti-c-MYC (D84C12) rabbit monoclonal antibody (#5605, Cell Signalling Technologies). The following day, plates were incubated with 1:1000 goat anti-rabbit Alexa 488 (ThermoFisher Scientific, #A-11008) and 1.62 μM Hoechst 33342 at room temperature for 1 hour before imaging. Excitation and emission spectra for each channel are as follows: Hoechst 33342=405/435-480 nm, Alexa 488=488/500-550 nm. Images were acquired at 40× and 63× magnification with water immersion lens.

[10] = test system: A549 cells; assay: Colony formation assay, A549; conditions: A549, 100 nM, 72 hours
Method: (§9) A549 and H1299 cells were seeded in 12 well plates at approximately 100 cells per well. In Example 8, wells were treated with DMSO, (+)-JQ1 or NZ-147. In Example 9, cells were treated with DMSO or NZ-175. Colonies were allowed to form over 120 h. Cells were fixed and stained with crystal violet staining solution, prepared in 70% ethanol.
(§10) A colony formation assay was performed in A549 and H1299 cells, which were treated with DMSO, (+)-JQ1 or NZ-147 at 100 nM for 72 hours and stained with crystal violet (FIG. 10A).
(§11) A colony formation assay was performed in A549 and H1299 cells, which were treated with DMSO or NZ-175 at 100 nM for 72 hours and stained with crystal violet (FIG. 16A).

[11] = test system: H1299 cells; assay: Colony formation assay, H1299; conditions: H1299, 100 nM, 72 hours
Method: as §9, §10, §11

[12] = test system: c-MYC; assay: Western blot, c-MYC in RPE1-hTERT-cMYC-ER cells; conditions: 100 nM, 72 h, 4-OHT and/or compound
Method: (§12) FIG. 12. c-MYC and MAX degradation enabled by NZ-175. (A) Schematic representation of hTERT-cMYC-ER expressing RPE1 cells. Treatment with 4-hydroxytamoxifen (4-OHT) translocates c-MYC-ER from the cytoplasm into the nucleus, simulating oncogenic c-MYC. (B) Western blot of RPE1-hTERT-cMYC-ER treated with 4-OHT and/or 100 nM NZ-175 for 72 hours. Quantification of c-MYC-ER (C), c-MYC (D) and MAX (E).
as §2, §4
(§13) RPE1-hTERT-cMYC-ER cells were treated with 4-OHT and/or 100 nM NZ-175 for 72 h and analysed by Western blotting (FIG. 12A). The levels of c-MYC-ER (FIG. 12B), c-MYC (FIG. 12C) and MAX (FIG. 12D) were quantified.

[13] = test system: MAX; assay: Western blot, MAX in RPE1-hTERT-cMYC-ER cells; conditions: 100 nM, 72 h, 4-OHT and/or compound
Method: as §12, §2, §4, §13

Compound: N#CC(C#N)=NNc1ccc(OC(F)(F)F)cc1 [FCCP]
- p-Ub (S65) levels [1]: substantial increase in p-Ub (S65) levels
- p-Ub (S65) levels [2]: does not occur in the PINK-null cells

Compound: 4-hydroxytamoxifen [4-OHT, reference compound]
- phospho-CHK1 (S345), replication stress [3]: upregulation
- pRPA (S4/S8), replication stress [4]: upregulation
- γH2AX, replication stress [5]: upregulation

Compound: Cc1sc2c(c1C)C(c1ccc(Cl)cc1)=N[C@@H](CC(=O)OC(C)(C)C)c1nnc(C)n1-2 [(+)-JQ1, reference compound]
- percentage of live cells [6]: dose-dependent decrease in the percentage of live cells
- percentage of live cells [7]: dose-dependent decrease in the percentage of live cells
- expression of c-MYC controlled genes (MDM2, CCNE, PAICS, eIF4E) [8]: reduces the expression of c-MYC controlled genes

Compound: C/C=C/C(=O)NCc1ccc(C(=O)Nc2ccccc2Oc2ccc(OCC(=O)NCCOCCOCCOCCn3cc(COc4ccc([C@@H](NC(=O)Nc5cc(C(F)(F)F)cc(C(F)(F)F)c5)C(=O)Nc5ccc(F)cc5F)cc4)nn3)cc2)cc1 [NZ-175, (R)-4-(crotonylamidomethyl)-N-(2-(4-((14-(4-((4-(1-(3-(3,5-bis(trifluoromethyl)phenyl)ureido)-2-((2,4-difluorophenyl)amino)-2-oxoethyl)phenoxy)methyl)-1H-1,2,3-triazol-1-yl)-2-oxo-6,9,12-trioxa-3-azatetradecyl)oxy)phenoxy)phenyl) benzamide]
- c-MYC degradation (time-course immunofluorescence) [9]: c-MYC degradation
- colony formation [10]: Fewer colonies formed
- colony formation [11]: Fewer colonies formed
- degradation of c-MYC [12]: initiates degradation of c-MYC
- degradation of MAX [13]: proximal degradation of MAX
- phospho-CHK1 (S345), replication stress [3]: rescues this phenotype
- pRPA (S4/S8), replication stress [4]: rescues this phenotype
- γH2AX, replication stress [5]: rescues this phenotype
